Legend:
AncB1B = tested on: T1, AncB1B; assay: isothermal titration calorimetry; format: binding, synthetic construct; settings: 25 °C, 20 mM Tris, 150 mM NaCl, pH 7.6; 10 µM propeller; single site model, five near-identical non-cooperative sites
T1 construct: single ancestral motif of about 47 residues, blade frame, first-library variant with F23L from error-prone PCR; homo-pentamer; E. coli (pET29), GlcNAc-resin purified

AncA1B = tested on: T2, AncA1B; assay: isothermal titration calorimetry; format: binding, synthetic construct; settings: 25 °C, 20 mM Tris, 150 mM NaCl, pH 7.6; 10 µM propeller; single site model, five near-identical non-cooperative sites
T2 construct: single ancestral motif of about 47 residues, blade frame, from second ancestral library; homo-pentamer; E. coli (pET29), GlcNAc-resin purified

CC(=O)N[C@H]1C(O)O[C@H](CO)[C@@H](O)[C@@H]1O (some centres unmarked) [GlcNAc]
binding affinity (AncB1B): The earliest evolutionary stage of single motifs was sampled using AncA1B and AncB1B | binding affinity (AncA1B): five different parameters were measured for representative variants along the evolutionary trajectory

From PMC4735018, “De Novo Evolutionary Emergence of a Symmetrical Protein Is Shaped by Folding Constraints” (Cell, 2016)
